Measured values from ChEMBL document CHEMBL3046383, “Enantioselective Herbicidal Activity of Chiral α-Methylbenzylphenylureas against Cyperaceae and Echinochloa Paddy Weeds” (Biosci Biotechnol Biochem, 1998).
Active and inactive are the calls of the source. The rule behind the calls is not given here.

What was measured:
Oryza sativa [1] = test: Phytotoxicity against directly seeded Oryza sativa (rice) seedlings assessed as phytotoxic activity ratings (0- no effect to 5-complete killing rating scale) at 100 g/a measured after 3 weeks post compound treatment under green house conditions; format: organism-based; conditions: in vivo, 504 h
[2] = test system: Schoenoplectiella juncoides; test: Herbicidal activity against Schoenoplectiella juncoides var. Hotarui Ohwi assessed as phytotoxic activity ratings (0- no effect to 5-complete killing rating scale) at 50 g/a measured after 3 weeks post compound treatment under green house conditions; format: functional
Oryza sativa [3] = test: Phytotoxicity against transplanted Oryza sativa (rice) seedlings assessed as phytotoxic activity ratings (0- no effect to 5-complete killing rating scale) at 100 g/a measured after 3 weeks post compound treatment under green house conditions; format: organism-based; conditions: in vivo, 504 h
Cyperus difformis [4] = test: Herbicidal activity against Cyperus difformis assessed as phytotoxic activity ratings (0- no effect to 5-complete killing rating scale) at 25 g/a measured after 3 weeks post compound treatment under green house conditions; format: functional
Echinochloa oryzicola [5] = test: Herbicidal activity against Echinochloa oryzicola assessed as phytotoxic activity ratings (0- no effect to 5-complete killing rating scale) at 100 g/a measured after 3 weeks post compound treatment under green house conditions; format: functional
Cyperus serotinus [6] = test: Herbicidal activity against Cyperus serotinus assessed as phytotoxic activity ratings (0- no effect to 5-complete killing rating scale) at 100 g/a measured after 3 weeks post compound treatment under green house conditions; format: functional
[7] = test system: Schoenoplectiella juncoides; test: Herbicidal activity against Schoenoplectiella juncoides var. Hotarui Ohwi assessed as phytotoxic activity ratings (0- no effect to 5-complete killing rating scale) at 100 g/a measured after 3 weeks post compound treatment under green house conditions; format: functional
Cyperus difformis [8] = test: Herbicidal activity against Cyperus difformis assessed as phytotoxic activity ratings (0- no effect to 5-complete killing rating scale) at 12.2 g/a measured after 3 weeks post compound treatment under green house conditions; format: functional
Cyperus difformis [9] = test: Herbicidal activity against Cyperus difformis assessed as phytotoxic activity ratings (0- no effect to 5-complete killing rating scale) at 100 g/a measured after 3 weeks post compound treatment under green house conditions; format: functional
Echinochloa oryzicola [10] = test: Herbicidal activity against Echinochloa oryzicola assessed as phytotoxic activity ratings (0- no effect to 5-complete killing rating scale) at 25 g/a measured after 3 weeks post compound treatment under green house conditions; format: functional
Cyperus difformis [11] = test: Herbicidal activity against Cyperus difformis assessed as phytotoxic activity ratings (0- no effect to 5-complete killing rating scale) at 6.2 g/a measured after 3 weeks post compound treatment under green house conditions; format: functional
Oryza sativa [12] = test: Phytotoxicity against directly seeded Oryza sativa (rice) seedlings assessed as phytotoxic activity ratings (0- no effect to 5-complete killing rating scale) at 12.2 g/a measured after 3 weeks post compound treatment under green house conditions; format: organism-based; conditions: in vivo, 504 h
Echinochloa oryzicola [13] = test: Herbicidal activity against Echinochloa oryzicola assessed as phytotoxic activity ratings (0- no effect to 5-complete killing rating scale) at 6.2 g/a measured after 3 weeks post compound treatment under green house conditions; format: functional
Cyperus serotinus [14] = test: Herbicidal activity against Cyperus serotinus assessed as phytotoxic activity ratings (0- no effect to 5-complete killing rating scale) at 3.1 g/a measured after 3 weeks post compound treatment under green house conditions; format: functional
[15] = test system: Schoenoplectiella juncoides; test: Herbicidal activity against Schoenoplectiella juncoides var. Hotarui Ohwi assessed as phytotoxic activity ratings (0- no effect to 5-complete killing rating scale) at 6.2 g/a measured after 3 weeks post compound treatment under green house conditions; format: functional
Cyperus serotinus [16] = test: Herbicidal activity against Cyperus serotinus assessed as phytotoxic activity ratings (0- no effect to 5-complete killing rating scale) at 3.1 to 100 g/a measured after 3 weeks post compound treatment under green house conditions; format: functional
Cyperus serotinus [17] = test: Herbicidal activity against Cyperus serotinus assessed as phytotoxic activity ratings (0- no effect to 5-complete killing rating scale) at 50 g/a measured after 3 weeks post compound treatment under green house conditions; format: functional
[18] = test system: Schoenoplectiella juncoides; test: Herbicidal activity against Schoenoplectiella juncoides var. Hotarui Ohwi assessed as phytotoxic activity ratings (0- no effect to 5-complete killing rating scale) at 12.2 g/a measured after 3 weeks post compound treatment under green house conditions; format: functional
Cyperus difformis [19] = test: Herbicidal activity against Cyperus difformis assessed as phytotoxic activity ratings (0- no effect to 5-complete killing rating scale) at 50 g/a measured after 3 weeks post compound treatment under green house conditions; format: functional
Echinochloa oryzicola [20] = test: Herbicidal activity against Echinochloa oryzicola assessed as phytotoxic activity ratings (0- no effect to 5-complete killing rating scale) at 50 g/a measured after 3 weeks post compound treatment under green house conditions; format: functional
[21] = test system: Schoenoplectiella juncoides; test: Herbicidal activity against Schoenoplectiella juncoides var. Hotarui Ohwi assessed as phytotoxic activity ratings (0- no effect to 5-complete killing rating scale) at 3.1 g/a measured after 3 weeks post compound treatment under green house conditions; format: functional
Oryza sativa [22] = test: Phytotoxicity against directly seeded Oryza sativa (rice) seedlings assessed as phytotoxic activity ratings (0- no effect to 5-complete killing rating scale) at 6.2 g/a measured after 3 weeks post compound treatment under green house conditions; format: organism-based; conditions: in vivo, 504 h
Cyperus serotinus [23] = test: Herbicidal activity against Cyperus serotinus assessed as phytotoxic activity ratings (0- no effect to 5-complete killing rating scale) at 12.2 g/a measured after 3 weeks post compound treatment under green house conditions; format: functional

Cc1ccc(NC(=O)N[C@H](C)c2ccccc2)cc1 gave an Activity (Oryza sativa [1]) of 0%, an Activity [2] of 80% and an Activity (Oryza sativa [3]) of 0%. The Activity (Cyperus difformis [4]) was 80%, the Activity (Echinochloa oryzicola [5]) was 10% and the Activity (Cyperus serotinus [6]) was 40%.
Molecule CCc1cccc(NC(=O)N[C@H](C)c2ccccc2)c1 has an Activity [7] of 40%, an Activity (Oryza sativa [1]) of 0% and an Activity (Oryza sativa [3]) of 0%. It also gave an Activity (Echinochloa oryzicola [5]) of 40%, an Activity (Cyperus serotinus [6]) of 40% and an Activity (Cyperus difformis [8]) of 80%.
Work on C[C@H](NC(=O)Nc1ccccc1)c1ccccc1 yielded an Activity [7] of 0%, an Activity (Cyperus difformis [9]) of 0% and an Activity (Oryza sativa [1]) of 10%. The Activity (Oryza sativa [3]) was 0%, the Activity (Echinochloa oryzicola [10]) was 80% and the Activity (Cyperus serotinus [6]) was 0%.
Molecule CC(C)c1ccccc1NC(=O)N[C@H](C)c1ccccc1 has an Activity (Oryza sativa [3]) of 0%, an Activity (Cyperus difformis [11]) of 80% and an Activity (Oryza sativa [12]) of 80%. It also gave an Activity (Echinochloa oryzicola [13]) of 80%, an Activity (Cyperus serotinus [14]) of 80% and an Activity [15] of 80%.
Work on C[C@H](NC(=O)Nc1ccccc1F)c1ccccc1 yielded an Activity [7] of 0%, an Activity (Cyperus difformis [9]) of 10% and an Activity (Oryza sativa [1]) of 40%. For the same molecule, the Activity (Oryza sativa [3]) was 0%, the Activity (Echinochloa oryzicola [13]) was 80% and the Activity (Cyperus serotinus [6]) was 0%.
C[C@H](NC(=O)Nc1cc(F)ccc1F)c1ccccc1 showed an Activity [7] of 0%, an Activity (Cyperus difformis [9]) of 0% and an Activity (Oryza sativa [1]) of 10%. For the same molecule, the Activity (Cyperus serotinus [16]) was “inactive”, the Activity (Oryza sativa [3]) was 0% and the Activity (Echinochloa oryzicola [10]) was 80%.
Cc1ccccc1NC(=O)N[C@H](C)c1ccccc1 gave an Activity (Cyperus difformis [9]) of 10%, an Activity (Oryza sativa [1]) of 0% and an Activity (Oryza sativa [3]) of 0%. It also gave an Activity (Cyperus serotinus [17]) of 80% and an Activity (Echinochloa oryzicola [5]) of 0%.
In the case of COc1cccc(NC(=O)N[C@H](C)c2ccccc2)c1, the Activity (Cyperus difformis [9]) is reported as 40%, the Activity (Oryza sativa [1]) is reported as 10% and the Activity (Cyperus serotinus [16]) is reported as 80%. The Activity [2] was 80%, the Activity (Oryza sativa [3]) was 0% and the Activity (Echinochloa oryzicola [5]) was 10%. The Activity (Cyperus serotinus [6]) was 10%.
CCCc1ccc(NC(=O)N[C@H](C)c2ccccc2)cc1 was tested, and the Activity [7] was 40%, the Activity (Cyperus difformis [9]) was 40% and the Activity (Oryza sativa [1]) was 10%. It also gave an Activity (Oryza sativa [3]) of 0%, an Activity (Echinochloa oryzicola [13]) of 80% and an Activity (Cyperus serotinus [6]) of 0%.
Molecule C[C@H](NC(=O)Nc1cccc(F)c1F)c1ccccc1 has an Activity [7] of 0%, an Activity (Cyperus difformis [9]) of 0% and an Activity (Oryza sativa [1]) of 10%. The Activity (Cyperus serotinus [16]) was “inactive”, the Activity (Oryza sativa [3]) was 0% and the Activity (Echinochloa oryzicola [10]) was 80%.
C[C@@H](NC(=O)Nc1ccccc1C(F)(F)F)c1ccccc1 showed an Activity [18] of 80%, an Activity (Oryza sativa [1]) of 10% and an Activity (Oryza sativa [3]) of 0%. For the same molecule, the Activity (Cyperus serotinus [14]) was 80%, the Activity (Echinochloa oryzicola [5]) was 40% and the Activity (Cyperus difformis [8]) was 80%.
CC(C)c1cccc(NC(=O)N[C@@H](C)c2ccccc2)c1 was tested, and the Activity (Oryza sativa [1]) was 0%, the Activity (Cyperus serotinus [16]) was 80% and the Activity (Oryza sativa [3]) was 0%. For the same molecule, the Activity (Echinochloa oryzicola [5]) was 0%, the Activity (Cyperus serotinus [6]) was 10% and the Activity (Cyperus difformis [19]) was 80%.
Cc1ccc(NC(=O)NC(C)(C)c2ccccc2)cc1 [DAIMURON] was tested, and the Activity (Echinochloa oryzicola [20]) was 80%, the Activity [21] was 80% and the Activity (Oryza sativa [1]) was 10%. It also gave an Activity (Oryza sativa [3]) of 0% and an Activity (Cyperus difformis [11]) of 80%.
In the case of C[C@@H](NC(=O)Nc1ccccc1C(C)(C)C)c1ccccc1, the Activity (Oryza sativa [3]) is reported as 0%, the Activity (Cyperus difformis [11]) is reported as 80% and the Activity (Oryza sativa [22]) is reported as 80%. It also gave an Activity (Echinochloa oryzicola [13]) of 80%, an Activity (Cyperus serotinus [14]) of 80% and an Activity [15] of 80%.
For CC(C)c1cccc(NC(=O)N[C@H](C)c2ccccc2)c1, the Activity [7] was 40%, the Activity (Oryza sativa [1]) was 0% and the Activity (Oryza sativa [3]) was 0%. For the same molecule, the Activity (Cyperus serotinus [23]) was 80%, the Activity (Cyperus difformis [4]) was 80% and the Activity (Echinochloa oryzicola [5]) was 0%.
For CCc1ccccc1NC(=O)N[C@H](C)c1ccccc1, the Activity [7] was 10%, the Activity (Oryza sativa [1]) was 0% and the Activity (Oryza sativa [3]) was 0%. It also gave an Activity (Cyperus difformis [4]) of 80%, an Activity (Cyperus serotinus [14]) of 80% and an Activity (Echinochloa oryzicola [5]) of 0%.
Work on C[C@@H](NC(=O)Nc1cccc(C(F)(F)F)c1)c1ccccc1 yielded an Activity (Cyperus difformis [9]) of 40%, an Activity (Oryza sativa [1]) of 10% and an Activity [2] of 80%. For the same molecule, the Activity (Oryza sativa [3]) was 0%, the Activity (Echinochloa oryzicola [5]) was 10% and the Activity (Cyperus serotinus [6]) was 0%.
CC(C)c1ccc(NC(=O)N[C@@H](C)c2ccccc2)cc1 gave an Activity [7] of 0%, an Activity (Cyperus difformis [9]) of 0% and an Activity (Oryza sativa [1]) of 0%. The Activity (Cyperus serotinus [16]) was “inactive”, the Activity (Oryza sativa [3]) was 0% and the Activity (Echinochloa oryzicola [5]) was 0%. It also gave an Activity (Cyperus serotinus [6]) of 0%.
Work on Cc1cccc(NC(=O)N[C@H](C)c2ccccc2)c1 yielded an Activity [7] of 80%, an Activity (Cyperus difformis [9]) of 80% and an Activity (Oryza sativa [1]) of 10%. The Activity (Oryza sativa [3]) was 0%, the Activity (Echinochloa oryzicola [5]) was 40% and the Activity (Cyperus serotinus [6]) was 80%.
In the case of C[C@H](NC(=O)Nc1cccc(C(F)(F)F)c1)c1ccccc1, the Activity [7] is reported as 0%, the Activity (Cyperus difformis [9]) is reported as 10% and the Activity (Oryza sativa [1]) is reported as 0%. For the same molecule, the Activity (Oryza sativa [3]) was 0%, the Activity (Echinochloa oryzicola [5]) was 10% and the Activity (Cyperus serotinus [6]) was 0%.
Molecule Cc1cc(F)ccc1NC(=O)N[C@H](C)c1ccccc1 has an Activity [7] of 0%, an Activity (Cyperus difformis [9]) of 0% and an Activity (Oryza sativa [1]) of 0%. The Activity (Oryza sativa [3]) was 0%, the Activity (Echinochloa oryzicola [5]) was 0% and the Activity (Cyperus serotinus [6]) was 0%.
